Measurements: PubChem BioAssay AID1221 (NMMLSC, 2008)
Calls of active or inactive are those of the source.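 The calls were made as follows: active = summed score of at least 50 from binding left at 10 µM, EC50 band and curve drop size; inactive = the rest.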

Target: Estrogen receptor beta (Homo sapiens) (UniProt Q92731)
Assay: competitive ligand binding to estrogen receptor beta – cell-based, Cos7 ERbeta-GFP, E2-Alexa633, flow cytometry, dose response (AID 1221)
Conditions: for percent ligand binding remaining: at 10 µM (top of the series)

Estrogen receptor beta (Homo sapiens), sequence (Q92731 whole entry, looked up): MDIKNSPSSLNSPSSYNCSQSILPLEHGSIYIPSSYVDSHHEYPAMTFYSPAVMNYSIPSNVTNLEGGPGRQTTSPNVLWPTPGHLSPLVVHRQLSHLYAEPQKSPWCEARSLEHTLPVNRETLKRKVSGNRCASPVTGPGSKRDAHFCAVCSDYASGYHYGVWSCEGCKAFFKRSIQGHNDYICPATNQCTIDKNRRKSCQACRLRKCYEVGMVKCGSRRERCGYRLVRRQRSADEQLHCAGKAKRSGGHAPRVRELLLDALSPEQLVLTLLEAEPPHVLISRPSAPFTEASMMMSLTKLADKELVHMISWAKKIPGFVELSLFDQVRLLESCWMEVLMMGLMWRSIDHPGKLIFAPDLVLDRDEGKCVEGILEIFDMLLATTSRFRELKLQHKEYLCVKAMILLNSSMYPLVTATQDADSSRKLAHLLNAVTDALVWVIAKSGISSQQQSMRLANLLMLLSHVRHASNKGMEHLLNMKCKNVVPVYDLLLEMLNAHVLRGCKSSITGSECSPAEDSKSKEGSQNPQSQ

Row | SMILES | percent ligand binding remaining | EC50
1 | Oc1ccc(-c2nc(-c3ccc(O)c(O)c3)cs2)cc1 | inactive | –
2 | Cc1cc(C)c2c(c1)NC(c1cc3c(cc1Br)OCO3)C1CC=CC21 (stereo not drawn) | inactive | –
3 | Cc1cc([N+](=O)[O-])c2c(c1C)C1C=CCC1C(c1ccccn1)N2 (stereo not drawn) | inactive | –
4 | O=C(Cc1cccs1)Nc1ccc(S(=O)(=O)Nc2ncccn2)cc1 | inactive | –
5 | Cn1ccnc1SCC(=O)Nc1ccc2nc(SCC(=O)NC3CC3)sc2c1 | inactive | –
6 | C[C@H]1CCC[C@@H](O)CCC/C=C/c2cc(O)cc(O)c2C(=O)O1 | inactive | –
7 | O=C(O)c1ccc2c(c1)C1C(Cl)C(Sc3ccccc3[N+](=O)[O-])CC1C(c1cccc([N+](=O)[O-])c1)N2 (stereo not drawn) | inactive | –
8 | CCn1c(=NC(=O)c2ccc(N3C(=O)CCC3=O)cc2)sc2c(OC)ccc(OC)c21 | inactive | –
9 | COc1cccc(C2Nc3c(F)cc(Br)cc3C3C=CCC32)c1OC (stereo not drawn) | inactive | –
10 | CC(=O)c1ccc2c(c1)C1C=CCC1C(c1ccc(S(=O)(=O)N3CCOCC3)cc1)N2 (stereo not drawn) | inactive | –
11 | O=S(=O)(NCCc1csc(-c2cccnc2)n1)c1ccc(Cl)s1 | inactive | –
12 | Oc1ccc(-c2nc3ccc4ccccc4c3c3c2CCC3)cc1O | – | > 10 µM (inactive)
13 | N=C1C(c2nc3ccccc3[nH]2)=C(O)CN1c1ccc(CC(=O)O)cc1 | inactive | –
14 | CCC(=O)Oc1ccc(/C(CC)=C(\CC)c2ccc(OC(=O)CC)cc2)cc1 | 32.1% | –
15 | COc1cccc(NS(=O)(=O)c2ccc3c(c2)C2C=CCC2C(c2ccc(C(=O)O)cc2)N3)c1 (stereo not drawn) | inactive | –
16 | Brc1cc2c(cc1C1Nc3ccccc3C3C=CCC31)OCO2 (stereo not drawn) | inactive | –
17 | COc1ccc(/C=N/NC(=O)c2nc(-c3ccccc3)cc(-c3ccccc3)n2)cc1O | inactive | –

Row | SMILES | percent ligand binding remaining | EC50
18 | Cc1cc(C(=O)Nc2sc3c(c2C#N)CCC3)no1 | inactive | –
19 | Cc1ccc(-n2c(=O)c(C#N)cc3c(=O)n4cccc(C)c4nc32)cc1 | inactive | –
20 | COc1ccc(NC(=O)C(c2ccccc2)N(C)C(=O)c2ccc(=O)[nH]c2)cc1 (stereo not drawn) | inactive | –
21 | CC(=O)Nc1ccc(OC(=O)CC2SC(=O)NC2=O)cc1 (stereo not drawn) | inactive | –
22 | Cc1cc(C)cc(OCC(=O)Nc2ccc(N3CCCC3)cc2)c1 | inactive | –
23 | COc1ccc(C(=O)N/N=C(\C)c2ccc3c(c2)C2C=CCC2C(c2ccccc2)N3)cc1 (stereo not drawn) | 32.7% | –
24 | Cc1nnc(SCC(=O)NC(=O)NCc2ccco2)n1Cc1ccccc1 | inactive | –
25 | O=C1/C(=C\c2ccco2)SC(=S)N1c1ccc(O)cc1 | inactive | –
26 | O=C1NC(c2ccc(Br)cc2)Nc2sc3c(c21)CCC3 (stereo not drawn) | inactive | –
27 | Cc1nn(-c2ccccc2)c(/N=C/c2ccc(O)cc2)c1-c1ccccc1 | inactive | –
28 | COc1nc(-c2ccc(Cl)cc2)ccc1-c1noc(-c2ccco2)n1 | inactive | –
29 | CCc1nc2sc3ccccc3c(=O)c2c(=O)n1Cc1ccco1 | inactive | –
30 | CCCCCCNC(=O)c1cc(-c2ccco2)nc2ccccc12 | inactive | –
31 | CCNC(=O)c1ccc2c(c1)C1C3CCC(C3)C1C(c1ccccc1)N2 (stereo not drawn) | inactive | –
32 | C/C=C(/C(=C/C)c1ccc(O)cc1)c1ccc(O)cc1 | 45.1% | –
33 | C[C@]12CC[C@@H]3c4ccc(O)cc4[C@@H](O)C[C@H]3[C@@H]1CC[C@@H]2O | inactive | –
